Results published in patent US20020058042A1, “Non-IgA fc binding forms of the Group B streptococcal beta antigens” (priority 1996, published 2002).
No end group written: not given here.

Tested on: binding of human IgA to the purified Cβ protein
Experiment: ELISA inhibition assay: peptides blocking binding of human IgA to purified Cβ protein
Settings: synthetic peptide added with half-maximal dilution of IgA myeloma protein
Method: Several synthetic peptides were made corresponding to the amino acid sequence contained within this region of the Cβ protein. Peptides were synthesized using NMP t-butoxycarbonyl chemistry on an ABI 430A peptide synthesizer (Applied Biosystems, Foster City, Calif.) and were deprotected. Peptides from a sample of the resin were removed from the resin by treatment with HF in the presence of anisole (0° C./1 h). Preparative purification of these peptides were performed using a C18 column (2.14 ID×30 cm) (Dynamax-Rainin, Woburn, Mass.). The peptides were quantitated by PTC amino acid analysis using Waters Picotag system (Waters, Milford, Mass.). The synthesized peptides eluted from the C18 column as a major peak consisting of usually 75-85% of the total elution profile. The amino acid composition of the purified peptides were in good agreement with the sequence which was used to synthesize the peptides. […] The plates were incubated at 37° C. for 1 h and the absorbance at 405 nm determined using an Elida-5 microtiter plate reader (Physica, New York, N.Y.). […] This was done to obtain a titer of the human IgA myeloma protein which would give a half-maximal reading in the ELISA assay. […] The dilution of the human IgA myeloma protein which gave the half maximal reading was then added. […] The plates were then processed and read as described. The percentage of inhibition would be calculated as follows: […]

Sequence: NHQKSQVEKMAEQKG [SEQ ID NO: 10]
- inhibition of human IgA binding to purified Cβ: inhibited
